We go through one compound from article PMC9469208 (Journal of Medicinal Chemistry, 2022).

Each structure is given as a SMILES string. Where “and” joins values, the source holds several entries; their conditions need not be identical. Equal values may be shown once.

One data set deals with T1, recombinant human CYP3A4 (Homo sapiens, UniProt P08684).
T1 construct: purchased Cerep (Eurofins), Poitiers, France; Promega P450-Glo; in-house COS-7 uptake assays
Kind of data set: CYP3A4 P450-Glo assay. It is filed as in vitro ADME. The text has this:
(§1) The luminescent CYP3A4 P450-Glo and CYP2D6 P450-Glo assays and protocols were provided by Promega (Madison, WI).[98] The procedures were provided by the manufacturer and were similar as previously reported for the racemate I.[29]

A further data set deals with T2, Acetylcholinesterase (h) (Homo sapiens, UniProt P22303).
T2 construct: purchased Cerep (Eurofins), Poitiers, France; Promega P450-Glo; in-house COS-7 uptake assays
Kind of data set: Acetylcholinesterase (h) enzymatic activity. It is filed as biochemical. Particulars: read-out: % Inhibition, Acetylcholinesterase (h) enzymatic activity. The text has this: (§2) The general information is listed in the Supporting Information.

For another data set, the target named is T3, Alpha 1A (h) (Homo sapiens, UniProt P35348).
T3 construct: purchased Cerep (Eurofins), Poitiers, France; Promega P450-Glo; in-house COS-7 uptake assays
Kind of data set: Alpha 1A (h) functional assay. It is filed as cell-based.
Text: as §2

The target of another data set is T4, 5-HT6 (h) (Homo sapiens, UniProt P50406).
T4 construct: purchased Cerep (Eurofins), Poitiers, France; Promega P450-Glo; in-house COS-7 uptake assays
Kind of data set: 5-HT6 (h) functional assay. It is filed as cell-based.
Text: as §2

The target in the next data set is T5, recombinant human CYP2D6 (Homo sapiens, UniProt P10635).
T5 construct: purchased Cerep (Eurofins), Poitiers, France; Promega P450-Glo; in-house COS-7 uptake assays
Kind of data set: CYP2D6 P450-Glo assay. The class given is in vitro ADME. Particulars: only at the highest concentration of 25 μM.
Text: as §1

In the next data set the target is T6, CB1 (h) (Homo sapiens, UniProt P21554).
T6 construct: purchased Cerep (Eurofins), Poitiers, France; Promega P450-Glo; in-house COS-7 uptake assays
Kind of data set: CB1 (h) functional assay. It is filed as cell-based.
Text: as §2

Setting [1] is: 100 μM, listed as (R)-7 [(R)-AS-1].

T3 sequence (P35348 whole entry): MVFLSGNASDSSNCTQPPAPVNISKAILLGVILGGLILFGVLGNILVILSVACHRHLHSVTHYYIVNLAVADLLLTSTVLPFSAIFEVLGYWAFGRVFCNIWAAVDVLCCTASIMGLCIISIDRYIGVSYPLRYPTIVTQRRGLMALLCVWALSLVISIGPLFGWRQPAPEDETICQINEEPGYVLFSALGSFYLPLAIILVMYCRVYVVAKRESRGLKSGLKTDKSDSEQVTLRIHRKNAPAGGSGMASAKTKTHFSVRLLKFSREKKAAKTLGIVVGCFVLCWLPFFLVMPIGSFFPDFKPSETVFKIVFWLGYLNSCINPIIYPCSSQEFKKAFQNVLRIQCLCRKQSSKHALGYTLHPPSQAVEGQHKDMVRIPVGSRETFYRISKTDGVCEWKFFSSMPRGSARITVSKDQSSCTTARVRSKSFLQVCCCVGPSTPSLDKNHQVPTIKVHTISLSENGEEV
T6 sequence (P21554 whole entry): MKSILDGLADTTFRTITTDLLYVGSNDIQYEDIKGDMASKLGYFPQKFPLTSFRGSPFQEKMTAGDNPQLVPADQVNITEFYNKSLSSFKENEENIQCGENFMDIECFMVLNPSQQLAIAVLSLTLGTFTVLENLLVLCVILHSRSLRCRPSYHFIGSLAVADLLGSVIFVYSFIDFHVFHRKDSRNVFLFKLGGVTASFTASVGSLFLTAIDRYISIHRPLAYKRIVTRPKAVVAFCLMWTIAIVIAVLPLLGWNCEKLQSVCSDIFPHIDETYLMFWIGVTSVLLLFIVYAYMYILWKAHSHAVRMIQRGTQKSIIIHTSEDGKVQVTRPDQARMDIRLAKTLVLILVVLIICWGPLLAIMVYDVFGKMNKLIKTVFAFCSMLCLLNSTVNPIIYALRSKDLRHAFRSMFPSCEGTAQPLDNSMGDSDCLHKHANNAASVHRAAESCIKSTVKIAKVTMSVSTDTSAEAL
T4 sequence (P50406 whole entry): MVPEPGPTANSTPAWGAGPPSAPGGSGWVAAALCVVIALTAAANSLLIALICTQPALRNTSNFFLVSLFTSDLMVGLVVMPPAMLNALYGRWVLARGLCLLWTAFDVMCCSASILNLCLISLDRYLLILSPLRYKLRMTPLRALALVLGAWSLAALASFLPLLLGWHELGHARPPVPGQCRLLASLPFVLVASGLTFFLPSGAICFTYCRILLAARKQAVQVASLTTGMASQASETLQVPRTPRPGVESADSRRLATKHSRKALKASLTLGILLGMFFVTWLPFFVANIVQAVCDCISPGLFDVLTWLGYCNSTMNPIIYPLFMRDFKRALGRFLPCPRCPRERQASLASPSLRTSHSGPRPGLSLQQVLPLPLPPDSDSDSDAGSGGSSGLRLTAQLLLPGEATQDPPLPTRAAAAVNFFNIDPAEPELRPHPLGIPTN
T1 sequence (P08684 whole entry): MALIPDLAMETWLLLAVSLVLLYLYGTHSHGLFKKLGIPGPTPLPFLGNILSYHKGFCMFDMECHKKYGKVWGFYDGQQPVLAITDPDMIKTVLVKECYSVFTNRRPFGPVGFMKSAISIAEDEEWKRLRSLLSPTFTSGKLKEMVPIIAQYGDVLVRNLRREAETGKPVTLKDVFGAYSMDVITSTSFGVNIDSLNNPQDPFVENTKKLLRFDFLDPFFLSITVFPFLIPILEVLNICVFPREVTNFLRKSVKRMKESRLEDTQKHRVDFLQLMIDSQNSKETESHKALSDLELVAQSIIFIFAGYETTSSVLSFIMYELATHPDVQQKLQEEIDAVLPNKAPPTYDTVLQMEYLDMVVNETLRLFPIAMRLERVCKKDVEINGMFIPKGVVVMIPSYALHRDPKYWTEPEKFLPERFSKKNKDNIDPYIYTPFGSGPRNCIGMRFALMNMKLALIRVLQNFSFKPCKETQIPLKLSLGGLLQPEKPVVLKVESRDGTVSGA
T2 sequence (P22303 32-614): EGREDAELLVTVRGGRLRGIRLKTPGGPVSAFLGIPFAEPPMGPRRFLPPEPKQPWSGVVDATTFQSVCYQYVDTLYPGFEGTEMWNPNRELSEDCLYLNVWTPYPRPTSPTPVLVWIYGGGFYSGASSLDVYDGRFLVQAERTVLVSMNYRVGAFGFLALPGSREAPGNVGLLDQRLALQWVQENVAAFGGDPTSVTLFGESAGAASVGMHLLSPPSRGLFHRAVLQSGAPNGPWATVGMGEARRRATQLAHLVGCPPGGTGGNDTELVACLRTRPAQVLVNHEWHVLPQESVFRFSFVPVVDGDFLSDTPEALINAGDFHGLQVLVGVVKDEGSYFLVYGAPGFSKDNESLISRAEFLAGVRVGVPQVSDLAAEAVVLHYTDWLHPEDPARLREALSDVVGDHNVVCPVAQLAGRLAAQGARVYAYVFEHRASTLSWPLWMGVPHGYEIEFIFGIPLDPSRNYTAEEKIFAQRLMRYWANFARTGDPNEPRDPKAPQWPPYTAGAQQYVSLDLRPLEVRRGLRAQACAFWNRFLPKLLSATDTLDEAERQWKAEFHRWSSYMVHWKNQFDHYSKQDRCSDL
T5 sequence (P10635 whole entry): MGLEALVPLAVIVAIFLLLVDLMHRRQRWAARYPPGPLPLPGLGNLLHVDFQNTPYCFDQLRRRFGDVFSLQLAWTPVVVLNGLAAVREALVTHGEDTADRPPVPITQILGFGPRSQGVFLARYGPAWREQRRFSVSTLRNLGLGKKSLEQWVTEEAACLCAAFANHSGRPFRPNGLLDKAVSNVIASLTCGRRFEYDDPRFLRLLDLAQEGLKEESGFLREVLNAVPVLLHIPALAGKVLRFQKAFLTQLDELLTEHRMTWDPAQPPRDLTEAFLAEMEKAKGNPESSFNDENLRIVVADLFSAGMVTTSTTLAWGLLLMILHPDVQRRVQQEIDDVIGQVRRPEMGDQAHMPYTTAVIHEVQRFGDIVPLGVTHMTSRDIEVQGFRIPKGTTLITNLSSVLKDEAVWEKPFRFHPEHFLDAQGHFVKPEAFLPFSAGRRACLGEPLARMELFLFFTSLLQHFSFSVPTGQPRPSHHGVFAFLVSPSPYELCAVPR

`C[C@H](C(=O)NCc1ccccc1)N1C(=O)CCC1=O` [(R)-7, (R)-N-Benzyl-2-(2,5-dioxopyrrolidin-1-yl)propanamide]: the CYP3A4 activity on recombinant human CYP3A4 (10 μM, ± SD) was 100.4 ± 4.2 % of control. The “effect on CYP3A4” value on recombinant human CYP3A4 (only at the highest concentration of 25 μM) was “slight inhibition”. Also, on Acetylcholinesterase (h), the inhibition (usually the relative decrease from the control value, in per cent) at 10 µM turned out to be 1.59%. Moreover, the “% Effect, Alpha 1A (h) (Agonist effect)” value at Alpha 1A (h) (setting [1]) is -2.05% and 2.05 (100 µM) %. The inhibition at 100 µM was 1.28% on Alpha 1A (h) (read-out: % Inhibition, Alpha 1A (h) (Antagonist effect)); -6.42% at 5-HT6 (h) (read-out: % Inhibition, 5-HT6 (h) (Antagonist effect)); 5.59% at CB1 (h) (read-out: % Inhibition, CB1 (h) (Antagonist effect)). For the same compound, at 5-HT6 (h) (setting [1]), the “% Effect, 5-HT6 (h) (Agonist effect)” value is -0.26% and -0.26 (100 µM) %. Besides, at recombinant human CYP2D6, the “effect on CYP2D6” value is “slight activation”. In addition, the “% Effect, CB1 (h) (Agonist effect)” value on CB1 (h) (10 µM (as printed in the xlsx)) is reported as -6.83 (10 µM) %; at CB1 (h) (100 μM), -6.83%.
